Assay results reported in publication PMC11020070, “Discovery of Protease-Activated Receptor 4 (PAR4)-Tethered Ligand Antagonists Using Ultralarge Virtual Screening” (ACS Pharmacology & Translational Science, 2024).
Like-named read-outs stand apart in the source and are kept apart here.

Target: T1, PAR4 (Homo sapiens, UniProt Q96RI0)
T1 sequence (Q96RI0 18-385): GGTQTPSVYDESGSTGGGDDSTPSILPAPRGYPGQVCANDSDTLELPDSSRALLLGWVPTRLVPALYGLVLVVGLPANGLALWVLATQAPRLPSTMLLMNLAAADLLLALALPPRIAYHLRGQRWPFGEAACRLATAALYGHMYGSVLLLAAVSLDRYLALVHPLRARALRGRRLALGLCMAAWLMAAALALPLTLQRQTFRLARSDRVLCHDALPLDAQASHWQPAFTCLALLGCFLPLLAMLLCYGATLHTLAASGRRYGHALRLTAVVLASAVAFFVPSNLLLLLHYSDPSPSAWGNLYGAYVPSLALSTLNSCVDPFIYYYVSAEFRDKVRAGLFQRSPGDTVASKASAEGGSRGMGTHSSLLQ
Experiment: Human platelet activity assay, flow cytometry, γ-thrombin activation
Format: cell-based
Parameters: endogenous in cells; host or cells: washed human platelets from healthy volunteers
Procedure: To test the antagonistic effect of the compounds on PAR4, a flow cytometry assay of human platelets was employed. Each compound was screened at 10 μM in human platelets using flow cytometry for GPIIbIIIa activation (PAC1) and P-selectin (CD62p) expression as previously described.[4] Activation of GPIIbIIIa allows interaction with divalent fibrinogen or multivalent von Willebrand factor, leading to platelet aggregation.[41] PAR4 stimulation also triggers α-granule secretion containing P-selectin.[5] […] Platelets were treated with each test compound or vehicle control DMSO before activating with γ-thrombin (100 nM) or PAR4 agonist peptide mimetic (200 μM, “PAR4-AP” AYPGKF) for 30 min. γ-thrombin activates PAR4 but not PAR1.[42]
Activation of washed human platelets was monitored by flow cytometry for the detection of PAC1 (GPIIbIIIa activation) and CD62p (P-selectin expression) binding as previously described.[4] Human platelets were obtained from healthy volunteers. The Vanderbilt University Internal Review Board approved these studies. Informed consent was obtained from all individuals prior to the blood draw. 10 mL of whole blood was collected into 0.32% Na citrate. Platelet-rich plasma was collected after room-temperature centrifugation at 1100 rpm for 15 min on a Thermo Forma 400 centrifuge (Thermo Fisher, Waltham, MA). 1/10 volume of acid citrate dextrose (ACD) buffer was added to the collected supernatant and incubated for 10 min. After centrifugation at 2400 rpm for 10 min, the platelet pellet was resuspended in 1 mL Tyrode’s buffer (“TBB”: 15 mM HEPES, 0.33 mM NaH2PO4, pH 6.4, 138 mM NaCl, 2.7 mM KCl, 1 mM MgCl2, 5.5 mM dextrose, 0.1% bovine serum albumin). Platelets were collected, counted on a Z1 Coulter Particle Counter (Beckman Coulter, Brea, CA), and diluted in TBB to 1.5 × 10^7 platelets/mL. 60 uL of platelets were aliquoted to each tube and preincubated with 40 μL of TBB with antibodies PAC1 FITC (Becton Dickinson, Franklin Lakes NJ) and P-selectin PE (Becton Dickinson) and either test compound antagonist or DMSO vehicle control for 20 min. Platelets were then activated with 100 nM γ-thrombin or other agonists for 30 min. Samples were then fixed by adding 100 μL of 2% paraformaldehyde. After 30 min, samples were diluted by adding 300 μL of phosphate-buffered saline (PBS) and stored at 4C. Data were collected on a three-laser BD LSRFortessa (Becton Dickinson) and analyzed with FlowJo software (FlowJo LLC, Ashland, OR). The mean fluorescence intensity (geometric) of PE and FITC was determined from 30,000 events after compensation correction. Data were normalized to vehicle (DMSO) controls.
Compounds were screened for inhibition activity against human PAR4 using 100 nM γ-thrombin or 200 μM PAR4-AP in a single-point assay (10 μM test compound).

[1] = human platelets, 100 nM γ-thrombin, GPIIbIIIa activation (PAC1), read-out: Human Platelets PAC1 IC50
[2] = human platelets, 100 nM γ-thrombin, P-selectin (CD62p), read-out: Human Platelets P-Sel IC50
[3] = Table 4 summary, read-out: human PAR4 IC50

IC50 [1] [nM] | IC50 [2] [nM] | IC50 [3] [nM] | Compound | inhibition at 10 µM (10 μM compound, 100 nM γ-thrombin, human platelets, read-out: inhibition of platelet activation against γ-thrombin) [%] | IC50 (γ-thrombin activation of PAR4, human platelets, read-out: IC50, concentration-response curve (CRC)) [nM]
583 | 629 | 583 | Cc1cc(C(=O)Nc2n[nH]c(OC(F)F)n2)nn1-c1ccccc1 [Compound 9] | – | –
134 | 150 | 134 | Cn1nc(C(=O)Nc2n[nH]c(-c3c(F)cccc3F)n2)cc1C1CC1 [Compound 12] | – | –
502 | 599 | 502 | O=C(Nc1nc[nH]n1)c1nn(-c2ccccc2)c2c1CCC2 [Compound 17] | – | –
117 | 135 | – | O=C(Nc1n[nH]c(-c2ccc(F)cc2F)n1)c1nn(-c2ccccc2)c2c1CCCC2 [Compound 31] | – | –
120 | 178 | 120 | COc1cccc(-c2nc(NC(=O)c3nn(-c4ccccc4)c4c3CCCC4)n[nH]2)c1 [Compound 32] | – | –

Compound | IC50 [1] [nM] | IC50 [2] [nM] | IC50 [3] [nM] | inhibition at 10 µM (10 μM compound, 100 nM γ-thrombin, human platelets, read-out: inhibition of platelet activation against γ-thrombin) [%] | IC50 (γ-thrombin activation of PAR4, human platelets, read-out: IC50, concentration-response curve (CRC)) [nM]
Cc1nc(NC(=O)c2cc(-c3ccccc3)n(-c3ccccc3)n2)n[nH]1 [Compound 7] | 2280 | 2730 | – | ~50 | 2300
